Where two headings read alike, the source gives them in different places.
How the values were obtained:
[1] = cited from earlier work
[2] = tested on: ERK 1/2; assay: Western immunoblotting of total and phosphorylated ERK 1/2 in striatum after IVM; assay type: in vivo, mouse
Method: (§1) The dorsal and ventral striata were dissected from P2X4R KO and WT mice following killing with CO2 asphyxiation. […] The dorsal and ventral striata were dissected out as per the neuroanatomical landmarks described in the mouse brain atlas (Franklin, B. J. and Paxinos, G. (2007) The Mouse Brain in Stereotaxic Coordinates. Elsevier Academic Press, Amsterdam). The brain tissues were homogenized in a buffer containing 50 mM Tris-HCl pH (8.0), 150 mM NaCl, 1 mM EDTA, 0.1% sodium dodecyl sulfate, 1/100 dilution proteinases inhibitor cocktail (Millipore, Temecula, Calif., USA), and protein content was determined using bicinchoninic acid assay kit (Thermo Scientific, Rockford, Ill., USA). Homogenates were treated with a cocktail of phosphatase inhibitors (1 mM sodium pyrophosphate, 10 mM sodium fluoride, 0.5 mM sodium orthovandate, 10 mM β-glycerol phosphate, 1 μM microcysteine LR) (Sigma-Aldrich) for detection of phosphoproteins.
(§2) Protein samples of 50 lg ran on 10% sodium dodecyl sulfate-polyacrylamide gel electrophoresis gels and transferred onto polyvinylidine diflouride membranes using semi-dry transfer method (Trans turbo blot; BioRad Laboratories, Hercules, Calif., USA). Striatal samples from WT and P2X4R KO mice were made to run on the same gel and transferred onto the same membrane. Nonspecific binding was blocked by incubation in 5% non-fat dry milk, followed by incubation with primary antibodies overnight at 4° C. The antibodies used were rabbit anti-TH (1:5000), mouse anti-DAT (1:1000), rabbit anti-D2 receptor (1:1000), rabbit anti-DARPP-32 (1:1000) (Millipore), rabbit anti-D1 receptor (1:500; SantaCruz biotechnology, Santacruz, Calif., USA), mouse anti-total ERK 1/2 (1:1000), rabbit anti-total CREB (1:1000) (Cell Signaling Technology, Beverly, Mass., USA), mouse anti-β-actin (1:20 000; Sigma-Aldrich), and mouse anti-α-tubulin (1:10 000; Millipore). […] Protein quantification was carried out by optical densitometry using ImageJ software (NIH, Bethesda, Md., USA). […]
(§3) For the western blotting analysis, the average of densitometry values of WT striatal samples was used to arbitrarily normalize WT samples to 1 and the P2X4R KO striatal samples were normalized by dividing each densitometry value by the average of WT samples. […] Normalized density of proteins was expressed as mean±SEM. Phosphorylation was calculated as ratio of normalized values of phosphorylated form to total form of protein. DA levels were expressed as ng/mg of protein content. […] Pharmacological studies for motor behavior and sensorimotor gating were analyzed by two-way repeated measures ANOVA with time/PPI intensity and genotype/treatment as within and between-subjects variability, respectively, followed by Bonferroni post hoc test for multiple comparisons. […]

[3] = tested on: CREB; assay: Western immunoblotting of total and phosphorylated CREB in striatum after IVM; assay type: in vivo, mouse; settings: effect of IVM treatment 5 mg/kg
Method: as §1, §2, §3

[4] = tested on: WT and P2X4R KO mice; settings: Bortolato et al. 2013, cited from earlier work
[5] = tested on: DARPP-32; assay: Western immunoblotting of total and phosphorylated DARPP-32 in striatum after IVM; assay type: in vivo, mouse
Method: as §1
Protein samples of 50 lg ran on 10% sodium dodecyl sulfate-polyacrylamide gel electrophoresis gels and transferred onto polyvinylidine diflouride membranes using semi-dry transfer method (Trans turbo blot; BioRad Laboratories, Hercules, Calif., USA). Striatal samples from WT and P2X4R KO mice were made to run on the same gel and transferred onto the same membrane. Nonspecific binding was blocked by incubation in 5% non-fat dry milk, followed by incubation with primary antibodies overnight at 4° C. The antibodies used were rabbit anti-TH (1:5000), mouse anti-DAT (1:1000), rabbit anti-D2 receptor (1:1000), rabbit anti-DARPP-32 (1:1000) (Millipore), rabbit anti-D1 receptor (1:500; SantaCruz biotechnology, Santacruz, Calif., USA), mouse anti-total ERK 1/2 (1:1000), rabbit anti-total CREB (1:1000) (Cell Signaling Technology, Beverly, Mass., USA), mouse anti-β-actin (1:20 000; Sigma-Aldrich), and mouse anti-α-tubulin (1:10 000; Millipore). The antibodies for phospho proteins included rabbit antiphospho-Thr34-DARPP-32 (1:400; Millipore), rabbit anti-phospho-Ser133-CREB (1:500), rabbit anti-diphospho-Thr202/Tyr204-ERK 1/2 (1:500) (Cell Signaling Technology). Secondary antibodies included goat anti-mouse and goat anti-rabbit antibodies (1:10 000; BioRad Laboratories). Bands were visualized using chemiluminescence method (Clarity western plus enhanced chemiluminescence substrate; BioRad Laboratories) followed by exposure to HyBlot autoradiography films (Denville Scientific, Metuchen, N.J., USA). Protein quantification was carried out by optical densitometry using ImageJ software (NIH, Bethesda, Md., USA). Protein densities were normalized to β-actin or α-tubulin levels.
as §3

[6] = tested on: 6-OHDA lesioned WT and P2X4R KO mice; assay: L-DOPA-induced rotational behavior in the 6-OHDA model of DA depletion (Example 1); assay type: in vivo, mouse
Method: Mice were treated with desipramine hydrochloride (25 mg/kg, i.p.) (Sigma-Aldrich) 30 min prior to surgery to prevent concurrent damage of noradrenergic pathways by 6-OHDA. Mice were anesthetized with avertin ([…], i.p.) and placed in the stereotaxic apparatus. Two μL of freshly prepared 6-OHDA bromide salt (4 mg/mL in 0.2% ascorbic acid and 0.9% saline; Sigma-Aldrich) was unilaterally infused into left median forebrain bundle (from Bregma point: 1.2 mm posterior, 1.1 mm lateral, 5 mm ventral) (Franklin, B. J. and Paxinos, G. (2007) The Mouse Brain in Stereotaxic Coordinates. Elsevier Academic Press, Amsterdam) at a rate of 0.5 μL/min using a 10 μL Hamilton syringe and a microlitre syringe pump. The injection cannula was left in place for 3-5 min to prevent reflux and ensure complete absorption. Post-operative procedures involved daily subcutaneous (s.c.) injections with sucrose (5% w/v in saline) and warming on a heating pad for 2 weeks.
Mice were subjected to behavioral testing 3 weeks after 6-OHDA lesioning surgery. Mice were placed in a plastic cylinder (318 mm in diameter) with a video camera mounted above it. Baseline rotational behavior was established by saline injections which causes the mouse to rotate toward the lesioned side with lesser DA activity (ipsilateral rotations). L-DOPA (5 mg/kg, s.c.) was administered 5 min prior to behavioral testing and the number of contralateral and ipsilateral rotations were counted in every 10-minute interval for a total period of 90 min.
For the western blotting analysis, the average of densitometry values of WT striatal samples was used to arbitrarily normalize WT samples to 1 and the P2X4R KO striatal samples were normalized by dividing each densitometry value by the average of WT samples. Normalization of the two genotypes was done within the same membrane and presented as fold change of P2X4R KO versus WT in that membrane. For D1, D2, DARPP-32, ERK 1/2, and CREB immunoblotting; WT and P2X4R KO mice were generated in separate cohorts. The normalization of P2X4R KO to WT samples was done within the same cohort followed by combining data from two cohorts for analyses. […] Normalized density of proteins was expressed as mean±SEM. Phosphorylation was calculated as ratio of normalized values of phosphorylated form to total form of protein. DA levels were expressed as ng/mg of protein content. Unpaired Student t-test was used for analyzing the differences in protein densities and DA levels between WT and P2X4R KO groups. […] Pharmacological studies for motor behavior and sensorimotor gating were analyzed by two-way repeated measures ANOVA with time/PPI intensity and genotype/treatment as within and between-subjects variability, respectively, followed by Bonferroni post hoc test for multiple comparisons. Significance was set at p<0.05. All data were analyzed using GraphPad Prism software (San Diego, Calif., USA).

[7] = ventral striatum, effect of IVM treatment 5 mg/kg
[8] = ventral striatum, main effect of IVM treatment 5 mg/kg, treatment×genotype interaction significant (p<0.05)

Row | Compound | solubility in water [1] | ERK 1/2 phosphorylation ([2]; dorsal striatum, IVM 5 mg/kg, both genotypes (independent of P2X4R function)) | total ERK 1/2 levels ([2]; dorsal striatum, main effect of IVM treatment, treatment×genotype interaction significant) | ERK 1/2 phosphorylation [2, 7] | total ERK 1/2 levels [2, 7] | CREB phosphorylation ([3]; dorsal striatum) | total CREB levels ([3]; dorsal striatum) | total CREB levels ([3]; ventral striatum) | CREB phosphorylation ([3]; ventral striatum, interaction trended toward significance) | PPI (effect of IVM) ([4]; P2X4R KO mice) | PPI (effect of IVM) ([4]; WT C57BL/6J mice) | DARPP-32 phosphorylation ([5]; dorsal striatum, P2X4R KO mice, IVM 5 mg/kg i.p., 8 h post-drug) | DARPP-32 phosphorylation ([5]; dorsal striatum, WT mice, IVM 5 mg/kg i.p., 8 h post-drug, vs vehicle, Bonferroni p<0.05) | total DARPP-32 levels ([5]; dorsal striatum, main effect of IVM treatment (5 mg/kg i.p.), treatment×genotype interaction significant) | DARPP-32 phosphorylation [5, 8] | total DARPP-32 levels [5, 8] | L-DOPA induced motor behavior (contralateral rotations) ([6]; 6-OHDA P2X4R KO mice, IVM 5 mg/kg + L-DOPA 5 mg/kg vs L-DOPA alone, during the 5-15 min interval) | number of L-DOPA-induced rotations (contralateral) ([6]; 6-OHDA WT mice, IVM 5 mg/kg i.p. 8 h prior + L-DOPA 5 mg/kg s.c. vs L-DOPA alone, significant 5-65 min) | rotations induced by IVM alone (ipsilateral) ([6]; 6-OHDA WT mice, IVM 5 mg/kg i.p. 8 h prior, average for 2 hours, SEM ±2, significant vs sham controls) [rotations]
1 | C[C@@](Cc1ccc(O)c(O)c1)(NN)C(=O)O.O [Carbidopa, N-amino-α-methyl-3-hydroxy-L-tyrosine monohydrate] | slightly soluble | – | – | – | – | – | – | – | – | – | – | – | – | – | – | – | – | – | –
2 | CC[C@H](C)[C@H]1O[C@]2(CC[C@@H]1C)C[C@@H]1C[C@@H](C/C=C(\C)[C@@H](O[C@H]3C[C@H](OC)[C@@H](O[C@H]4C[C@H](OC)[C@@H](O)[C@H](C)O4)[C@H](C)O3)[C@@H](C)/C=C/C=C3\CO[C@@H]4[C@H](O)C(C)=C[C@@H](C(=O)O1)[C@]34O)O2 [IVM, ivermectin] | – | increased | no significant effect | no significant effect | no significant effect | no significant effect | no significant effect | no significant effect | no significant effect | attenuated response | PPI disruption | did not increase | significant increase | no significant effect | no significant effect | no significant effect | significant increase | significantly increased | 12
